Key:
[1] = target: T1, tBID (Mus musculus, UniProt P70444); experiment: tBID-induced Smac release from isolated mitochondria; type: biochemical; conditions: for tBID-induced Smac release from mitochondria isolated from HeLa cells: 50 ng tBid
T1 construct: tBID was produced by cleavage of purified BID with caspase-8, as known in the art; made in house; host or cells: E. coli BL21 (BID), then cleaved in vitro with caspase-8
T1 sequence (P70444 60-195 limits assumed): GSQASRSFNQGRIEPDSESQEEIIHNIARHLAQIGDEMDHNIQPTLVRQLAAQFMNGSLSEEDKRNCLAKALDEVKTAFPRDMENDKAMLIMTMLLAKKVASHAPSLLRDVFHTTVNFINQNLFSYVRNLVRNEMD
T1 sequence (P70444 1-59 partner limits assumed): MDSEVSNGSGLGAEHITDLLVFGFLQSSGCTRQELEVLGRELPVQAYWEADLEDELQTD
Description: 100 ng of tBID (cleaved by caspase 8) was pre-incubated with various concentrations of compounds for 15 minutes at 30° C. in HM buffer (10 mM Hepes, pH 7.4, 250 mM Mannitol, 10 mM KCl, 1.5 mM MgCl, 1 mM DTT, 1 mM EGTA), then 50 μg of isolated mitochondria from HCT116 cells were added to a final volume of 50 μl in HM buffer. After 1 hour incubation at 30° C., the samples were centrifuged at 10,000×g for 5 minutes at 4° C. and the supernatant was analyzed by SDS-PAGE/immunoblotting using anti-SMAC antibody.
Compounds II-IX were tested in vitro for their ability to inhibit BID-mediated release of Smac using mitochondria isolated from HeLa cells (FIG. 6A). The first lane represents mitochondria incubated without tBID. All others received 100 ng tBID without or with compounds. Each compound was tested at a concentration of 50 μM. […] To preliminarily investigate the mechanism by which compound II reduces Smac-release from isolated mitochondria, the tBID protein was treated with different concentrations of BI-6C9, after which it was incubated with mitochondria, followed by analysis of the bound and unbound fractions by immunoblotting using BID antibody. The concentration of mitochondria-bound tBID diminished in response to increasing concentrations of compound II.
About 50 ng of tBID cleaved by […] was pre-incubated for about 15 minutes at about 30° C. with various concentrations of compounds I, II, and X. Then, about 50 μg of isolated mitochondria from Hela cells were added to the reaction system. After about 1 hour of incubation at about 30° C., the samples were centrifuged at 10,000×g for about 5 minutes at about 4° C., and the supernatant was analyzed by SDS-PAGE/immunoblotting using Smac antibody. The results of the analysis are presented on FIG. 8. As shown by FIG. 9, compound I is a strong binder for BID.
Some results of comparative studies of compounds I and II are shown on FIG. 10. […] The first lane represents mitochondria incubated without tBID. All others received 50 ng tBid without or with bi-dentate compound.

[2] = target: T1, tBID; experiment: NMR chemical shift mapping with tBID (BID cleaved with caspase-8); type: binding; conditions: 15N-BID after cleavage with caspase-8
Description: Recombinant full length mouse BID was produced from a pET-19b (Novagen) plasmid construct containing the entire nucleotide sequence for BID fused to an N-terminal poly-His tag. Unlabeled BID was expressed in E. coli BL21 in LB media at 37° C., with an induction period of 3-4 hours with 1 mM IPTG. ^15N-labeled BID was similarly produced, with growth occurring in M9 media supplemented with 0.5 g/L ^15NH4Cl. ε-^13C-Met labeled BID was produced in M9 media supplemented with 50 mg/L of ε-^13C-Met at time of induction with IPTG. Following cell lysis, soluble BID was purified over a Hi-Trap chelating column (Amersham, Pharmacia), followed by ion-exchange purification with a MonoQ (Amersham, Pharmacia) column. Final BID samples were dialyzed into a buffer appropriate for the subsequent experiments. tBID was produced by cleavage of purified BID with caspase-8, as known in the art.
For all NMR experiments, BID was exchanged into 50 mM phosphate buffer at pH 7.5 and measurements were performed at 30° C. 2D [^15N,^1H]-TROSY spectra for BID were measured with 0.5 mM samples of ^15N-labeled BID. 2D [^13C,^1H]-HSQC spectra were measured with 0.2 mM samples of ε-^13C-Met labeled BID. 2D [^1H,^1H]-NOESY spectra were acquired with small molecules at a concentration of 0.9 mM in the presence of 10 μM BID. […]

Compound | tBID-induced Smac release from mitochondria isolated from HeLa cells [1] | binding to tBID compared with full-length BID [2] | inhibition at 50 µM ([1]; 50 μM compound, isolated mitochondria) | reduction of tBID-induced Smac release ([1]; 50 μM, 100 ng tBID, mitochondria isolated from HeLa cells) | decrease of Smac release, dose experiment ([1]; at concentrations as low as 20 μM)
Nc1ccc(Sc2ccc(NC(=O)CNC(=O)c3ccc(O)cc3O)cc2)cc1 [Compound I, N-((4-(4-aminophenylthio)phenylcarbamoyl)methyl)-2,4-dihydroxybenzamide] | block | higher affinity |  |  | 
COc1ccc(S(=O)(=O)NCCCC(=O)Nc2ccc(Sc3ccc(N)cc3)cc2)cc1 [Compound II, N-[4-(4-amino-phenylsulfanyl)-phenyl]-4-(4-methoxy-benzenesulfonylamino)-butyramide] | block | binding even better | 100% | significantly reduce | dramatically decreased

— patent publication US7741521B2, “Inhibition of bid-induced cell-death using small organic molecules” (The Burnham Institute, priority 2004, dated 2010)
